Literature values, collected in patent US6979682B2, “Platelet-activating factor antagonist inhibition of angiogenesis and tumor growth induced by basic fibroblast” (Board of Supervisors of Louisiana State University and …, priority 2001, dated 2005).
“Also recorded” adds a separate entry of the source.

Assays:
[1] = test system: angiogenesis stimulated by HGF, TNF-α or bFGF; conditions: cited from earlier work
[2] = test system: PAF binding sites (microsomal intracellular membranes; synaptosomal plasma membrane); conditions: Marcheselli et al., 1990; cited from earlier work

SMILES: Cc1nnc2n1-c1sc3c(c1C(c1ccccc1Cl)=NC2)CC(C(=O)N1CCOCC1)C3 (stereo not shown) [WEB 2170]
- angiogenesis stimulated by bFGF ([1]; Camussi et al., 1997, Montrucchio et al.): did not inhibit; also recorded: not inhibited
- angiogenesis stimulated by HGF ([1]; Camussi et al., 1997): inhibited
- angiogenesis stimulated by TNF-α ([1]; Montrucchio et al.): inhibited

SMILES: CCCCCCCCCCCCCCCCCCNC(=O)OCC(COP(=O)([O-])OCC[n+]1ccsc1)OC (stereo not shown) [CV-3988, reference compound]
- binding to the intracellular PAF binding sites [2]: known to bind to the intracellular PAF binding sites
